Data on two molecules can be found in patent US12540150B1, “Fluorogenic probe using a Mislow-Evans rearrangement for real-time imaging of hydrogen peroxide” (University of Pittsburgh—Of the Commonwealth System of …, priority 2020, dated 2026).

Where “and” joins values, the source holds several entries; their conditions need not be identical. Equal values may be shown once. Read-outs that look alike come from different tables or passages of the source.

Data set [1] in a line: Fluorescence intensity of selenide 1 and phenol 5. In kind it is physicochemical. The following applies: pH 7. Here is the method:
All fluorescence measurements (excitation 490 nm, emission 510-570 nm) were carried out using a Promega Biosystems Modulus II Microplate Reader or a HoribaMax Fluorometer unless otherwise stated. Data analysis was performed using GraphPad Prism 8.
The fluorescence intensity of selenide 1 and phenol 5 were investigated. Solutions containing ultrapure water (681 μL), […] phosphate pH 7 buffer (31 μL), DMSO (28.1 μL), and 80 μM 1 or phenol 5 in DMSO (9.4 μL) were made. Aliquots of these solutions (200 μL) were transferred to the wells of a black 96-well plate and the fluorescence was measured. As evident from FIG. 10 and Table 1, the difference in fluorescence intensity of probe 1 and phenol 5, is 27-fold. Generally, O-alkylation of Pittsburgh Green suppresses the fluorescence by 200-400 fold. The somewhat modest fluorescence increase in the current system is attributed to the trace contamination of the fluorescent compound 5 during the purification of the nonfluorescent probe 1.

For data set [2] the following is noted: 100 nM in water. As to the method:
The pH dependence of phenol 5 was also investigated. Phenol 5 was dissolved in water to a concentration of 100 nM. This solution (100 mL) was titrated with HCl and NaOH. The pH was measured after each addition before measuring the fluorescence using a Horiba FluoroMax3 fluorescence spectrometer. Fluorescence was measured using 1 nm slit widths with an excitation wavelength of 496 nm and an emission wavelength of 510 nm, the results of which are shown in FIG. 23 and Table 15.

The subject of data set [3] is RAW cells. The experiment in a line: Imaging of endogenous H2O2 upon ionomycin stimulation in RAW cells. The following applies: 5 μM probe. In kind it is cell-based. From the text:
After detecting exogenously added H2O2 in cells, the focus shifted to more biologically relevant, endogenous H2O2. It was attempted to monitor endogenous H2O2 production upon stimulation with ionomycin in RAW cells. […] In contrast, with probe 1, a significant response was observed within 30 s after the addition of ionomycin relative to the baseline fluorescence (FIG. 24B-C) and peaked at 48 s.

As for `O=c1ccc2c(-c3ccccc3CO)c3ccc(O)cc3oc-2c1` [Compound 5], the “Fluorescence Intensity” value in data set [1] was 244,687 and 247,204 and 246,848; in data set [2] (pH 3.99), 920; in data set [2] (pH 4.20), 930; in data set [2] (pH 4.33), 1,070; in data set [2] (pH 4.48) it was 1,450; in data set [2] (pH 4.65), 1,440. The “Fluorescence Intensity” value is reported as 1,670 in data set [2] (pH 4.77); 2,790 in data set [2] (pH 5.07); 5,280 in data set [2] (pH 5.51); 7,130 in data set [2] (pH 5.69); 10,250 in data set [2] (pH 5.90); 18,790 in data set [2] (pH 6.30). Besides, the “Fluorescence Intensity” value in data set [2] (pH 6.38) was 18,720; in data set [2] (pH 6.48) it was 22,820; in data set [2] (pH 6.80), 27,620; in data set [2] (pH 6.90) it was 31,730; in data set [2] (pH 7.11), 34,510; in data set [2] (pH 7.18) it was 35,740. For the same molecule, the “Fluorescence Intensity” value in data set [2] (pH 7.69) is on record as 39,880; in data set [2] (pH 8.31), 41,950; in data set [2] (pH 8.63), 42,930; in data set [2] (pH 8.88), 44,240; in data set [2] (pH 9.00) it was 43,280; in data set [2] (pH 9.09) it was 43,110. Moreover, the “Fluorescence Intensity” value is recorded as 43,140 in data set [2] (pH 9.15); 43,550 in data set [2] (pH 9.32); 43,850 in data set [2] (pH 9.40); 43,340 in data set [2] (pH 9.49); 45,080 in data set [2] (pH 9.56); 44,640 in data set [2] (pH 9.61). Moreover, the “Fluorescence Intensity” value was 43,930 in data set [2] (pH 9.71); 42,610 in data set [2] (pH 9.75); 44,070 in data set [2] (pH 9.83); 43,670 in data set [2] (pH 9.92); 41,900 in data set [2] (pH 10.01); 42,170 in data set [2] (pH 10.10). For the same molecule, the “Fluorescence Intensity” value in data set [2] (pH 10.22) was 42,800; in data set [2] (pH 10.33), 42,170; in data set [2] (pH 10.43) it was 42,570; in data set [2] (pH 10.48), 42,410; in data set [2] (pH 10.59), 40,450; in data set [2] (pH 10.68), 41,370. Moreover, the “Fluorescence Intensity” value in data set [2] (pH 10.75) is on record as 40,520; in data set [2] (pH 10.85), 40,140; in data set [2] (pH 10.91), 38,790.

With `CC(=O)Oc1cc2c(cc1Cl)C(c1ccccc1C(=O)O)c1cc(Cl)c(OC(C)=O)cc1O2` [dihydrodichlorofluorescein acetate, reference compound], the “fluorescence response upon ionomycin addition” value in data set [3] is reported as “fluorescence increase could hardly be observed”.
